Laboratory results reported in PubChem BioAssay AID256 (DTP/NCI, 2004).
Values joined by “and” are separate entries in the source; they are usually repeats but may differ in a detail not shown here. Equal entries are not always repeated. Toxic doses and inconclusive results are not listed. Rule for the calls: active = survival T/C of 150% or more; inactive = T/C below 125% in these data.

Test system: CD2F1 mice, L1210 leukemia ip, survival T/C
Experiment: NCI In Vivo Anticancer Drug Screen. Data for tumor model L1210 Leukemia (intraperitoneal) in CD2F1 (CDF1) mice
Conditions: higher = longer survival
Procedure, shortened: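 Tumor-bearing mice (transplanted tumor) were split into treated and vehicle control groups, and the measured endpoint of each treated group was divided by that of its vehicle controls.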

Measured: T/C

Nc1ncnc2c1ccn2C1OC(CO)C(O)C1O (centres undefined)
inactive: endpoint: mean survival time, dose: 0.13 mg/kg/injection, schedule: Q01DX009 (ip), vehicle: saline 104 % of control and 106 % of control | endpoint: mean survival time, dose: 0.16 mg/kg/injection, schedule: Q01DX010 (ip), vehicle: saline 98 % of control and 108 % of control | endpoint: mean survival time, dose: 0.25 mg/kg/injection, schedule: Q01DX009 (ip), vehicle: saline 104 % of control and 110 % of control | endpoint: mean survival time, dose: 0.32 mg/kg/injection, schedule: Q01DX010 (ip), vehicle: saline 104 % of control and 111 % of control | endpoint: mean survival time, dose: 0.5 mg/kg/injection, schedule: Q01DX009 (ip), vehicle: saline 103 % of control and 104 % of control | endpoint: mean survival time, dose: 0.5 mg/kg/injection, schedule: Q03HX008 (ip), vehicle: carboxymethylcellulose (CMC) 102 % of control | endpoint: mean survival time, dose: 0.5 mg/kg/injection, schedule: Q06HX004 (ip), vehicle: carboxymethylcellulose (CMC) 101 % of control | endpoint: mean survival time, dose: 0.63 mg/kg/injection, schedule: Q01DX009 (ip), vehicle: saline 114 % of control | endpoint: mean survival time, dose: 0.63 mg/kg/injection, schedule: Q01DX010 (ip), vehicle: saline 98 % of control and 107 % of control | endpoint: mean survival time, dose: 1.0 mg/kg/injection, schedule: Q01DX001 (ip), vehicle: carboxymethylcellulose (CMC) 109 % of control | endpoint: mean survival time, dose: 1.0 mg/kg/injection, schedule: Q01DX009 (ip), vehicle: saline 99 % of control and 107 % of control | endpoint: mean survival time, dose: 1.0 mg/kg/injection, schedule: Q03HX008 (ip), vehicle: carboxymethylcellulose (CMC) 104 % of control | endpoint: mean survival time, dose: 1.0 mg/kg/injection, schedule: Q06HX004 (ip), vehicle: carboxymethylcellulose (CMC) 104 % of control | endpoint: mean survival time, dose: 1.0 mg/kg/injection, schedule: Q#A X002 (ip), vehicle: carboxymethylcellulose (CMC) 108 % of control | endpoint: mean survival time, dose: 1.25 mg/kg/injection, schedule: Q01DX009 (ip), vehicle: saline 118 % of control | endpoint: mean survival time, dose: 1.25 mg/kg/injection, schedule: Q01DX010 (ip), vehicle: saline 118 % of control and 119 % of control | endpoint: mean survival time, dose: 2.0 mg/kg/injection, schedule: Q03HX008 (ip), vehicle: carboxymethylcellulose (CMC) 117 % of control | endpoint: mean survival time, dose: 2.0 mg/kg/injection, schedule: Q06HX004 (ip), vehicle: carboxymethylcellulose (CMC) 107 % of control | endpoint: mean survival time, dose: 2.0 mg/kg/injection, schedule: Q#A X002 (ip), vehicle: carboxymethylcellulose (CMC) 110 % of control | endpoint: mean survival time, dose: 2.5 mg/kg/injection, schedule: Q01DX009 (ip), vehicle: saline 116 % of control | endpoint: mean survival time, dose: 4.0 mg/kg/injection, schedule: Q01DX001 (ip), vehicle: carboxymethylcellulose (CMC) 120 % of control | endpoint: mean survival time, dose: 4.0 mg/kg/injection, schedule: Q03HX008 (ip), vehicle: carboxymethylcellulose (CMC) 108 % of control | endpoint: mean survival time, dose: 4.0 mg/kg/injection, schedule: Q06HX004 (ip), vehicle: carboxymethylcellulose (CMC) 114 % of control | endpoint: mean survival time, dose: 8.0 mg/kg/injection, schedule: Q01DX001 (ip), vehicle: carboxymethylcellulose (CMC) 124 % of control | endpoint: mean survival time, dose: 8.0 mg/kg/injection, schedule: Q03HX008 (ip), vehicle: carboxymethylcellulose (CMC) 118 % of control | endpoint: mean survival time, dose: 8.0 mg/kg/injection, schedule: Q06HX004 (ip), vehicle: carboxymethylcellulose (CMC) 116 % of control | endpoint: mean survival time, dose: 8.0 mg/kg/injection, schedule: Q#A X002 (ip), vehicle: carboxymethylcellulose (CMC) 122 % of control | endpoint: median survival time, dose: 0.06 mg/kg/injection, schedule: Q03HX024 (ip), vehicle: other 107 % of control | endpoint: median survival time, dose: 0.13 mg/kg/injection, schedule: Q03HX008 (ip), vehicle: other 102 % of control | endpoint: median survival time, dose: 0.13 mg/kg/injection, schedule: Q03HX016 (ip), vehicle: other 96 % of control | endpoint: median survival time, dose: 0.13 mg/kg/injection, schedule: Q03HX024 (ip), vehicle: other 100 % of control | endpoint: median survival time, dose: 0.25 mg/kg/injection, schedule: Q01DX009 (ip), vehicle: other 94 % of control | endpoint: median survival time, dose: 0.25 mg/kg/injection, schedule: Q01DX009 (sc), vehicle: other 93 % of control | endpoint: median survival time, dose: 0.25 mg/kg/injection, schedule: Q03HX008 (ip), vehicle: other 96 % of control | endpoint: median survival time, dose: 0.25 mg/kg/injection, schedule: Q03HX016 (ip), vehicle: other 94 % of control | endpoint: median survival time, dose: 0.25 mg/kg/injection, schedule: Q03HX024 (ip), vehicle: other 101 % of control | endpoint: median survival time, dose: 0.5 mg/kg/injection, schedule: Q01DX009 (ip), vehicle: other 88 % of control | endpoint: median survival time, dose: 0.5 mg/kg/injection, schedule: Q01DX009 (oral), vehicle: other 99 % of control | endpoint: median survival time, dose: 0.5 mg/kg/injection, schedule: Q01DX009 (sc), vehicle: other 98 % of control | endpoint: median survival time, dose: 0.5 mg/kg/injection, schedule: Q03HX008 (ip), vehicle: other 100 % of control | endpoint: median survival time, dose: 0.5 mg/kg/injection, schedule: Q03HX016 (ip), vehicle: other 101 % of control | endpoint: median survival time, dose: 0.5 mg/kg/injection, schedule: Q03HX024 (ip), vehicle: other 96 % of control | endpoint: median survival time, dose: 0.5 mg/kg/injection, schedule: Q04DX003 (ip), vehicle: other 98 % of control | endpoint: median survival time, dose: 1.0 mg/kg/injection, schedule: Q01DX001 (ip), vehicle: other 102 % of control | endpoint: median survival time, dose: 1.0 mg/kg/injection, schedule: Q01DX001 (sc), vehicle: other 104 % of control | endpoint: median survival time, dose: 1.0 mg/kg/injection, schedule: Q01DX009 (ip), vehicle: other 92 % of control | endpoint: median survival time, dose: 1.0 mg/kg/injection, schedule: Q01DX009 (oral), vehicle: other 99 % of control | endpoint: median survival time, dose: 1.0 mg/kg/injection, schedule: Q01DX009 (sc), vehicle: other 98 % of control | endpoint: median survival time, dose: 1.0 mg/kg/injection, schedule: Q03HX008 (ip), vehicle: other 99 % of control | endpoint: median survival time, dose: 1.0 mg/kg/injection, schedule: Q03HX016 (ip), vehicle: other 93 % of control | endpoint: median survival time, dose: 1.0 mg/kg/injection, schedule: Q04DX003 (ip), vehicle: other 99 % of control | endpoint: median survival time, dose: 1.0 mg/kg/injection, schedule: Q08DX002 (ip), vehicle: other 108 % of control | endpoint: median survival time, dose: 2.0 mg/kg/injection, schedule: Q01DX001 (ip), vehicle: other 111 % of control | endpoint: median survival time, dose: 2.0 mg/kg/injection, schedule: Q01DX001 (oral), vehicle: other 99 % of control | endpoint: median survival time, dose: 2.0 mg/kg/injection, schedule: Q01DX001 (sc), vehicle: other 103 % of control | endpoint: median survival time, dose: 2.0 mg/kg/injection, schedule: Q01DX009 (oral), vehicle: other 100 % of control | endpoint: median survival time, dose: 2.0 mg/kg/injection, schedule: Q01DX009 (sc), vehicle: other 91 % of control | endpoint: median survival time, dose: 2.0 mg/kg/injection, schedule: Q04DX003 (ip), vehicle: other 111 % of control | endpoint: median survival time, dose: 2.0 mg/kg/injection, schedule: Q08DX002 (ip), vehicle: other 104 % of control | endpoint: median survival time, dose: 4.0 mg/kg/injection, schedule: Q01DX001 (ip), vehicle: other 113 % of control | endpoint: median survival time, dose: 4.0 mg/kg/injection, schedule: Q01DX001 (oral), vehicle: other 96 % of control | endpoint: median survival time, dose: 4.0 mg/kg/injection, schedule: Q01DX001 (sc), vehicle: other 99 % of control | endpoint: median survival time, dose: 4.0 mg/kg/injection, schedule: Q01DX009 (oral), vehicle: other 101 % of control | endpoint: median survival time, dose: 4.0 mg/kg/injection, schedule: Q01DX009 (sc), vehicle: other 93 % of control | endpoint: median survival time, dose: 4.0 mg/kg/injection, schedule: Q04DX003 (ip), vehicle: other 106 % of control | endpoint: median survival time, dose: 4.0 mg/kg/injection, schedule: Q08DX002 (ip), vehicle: other 114 % of control | endpoint: median survival time, dose: 8.0 mg/kg/injection, schedule: Q01DX001 (ip), vehicle: other 110 % of control | endpoint: median survival time, dose: 8.0 mg/kg/injection, schedule: Q01DX001 (oral), vehicle: other 101 % of control | endpoint: median survival time, dose: 8.0 mg/kg/injection, schedule: Q01DX001 (sc), vehicle: other 100 % of control | endpoint: median survival time, dose: 8.0 mg/kg/injection, schedule: Q01DX009 (oral), vehicle: other 103 % of control | endpoint: median survival time, dose: 8.0 mg/kg/injection, schedule: Q04DX003 (ip), vehicle: other 90 % of control | endpoint: median survival time, dose: 8.0 mg/kg/injection, schedule: Q08DX002 (ip), vehicle: other 108 % of control | endpoint: median survival time, dose: 16.0 mg/kg/injection, schedule: Q01DX001 (oral), vehicle: other 100 % of control | endpoint: median survival time, dose: 32.0 mg/kg/injection, schedule: Q01DX001 (oral), vehicle: other 86 % of control
